One data set has as its system MonoMac6 (MM6) cells. Put plainly: NFκB nuclear translocation in MonoMac6 cells (ImageStream). In kind it is cell-based, human. An excerpt: MonoMac6 Cells in exponential growth are stimulated with increasing concentrations of AGP diluted in 2% glycerol vehicle for the indicated time points. Immediately fixed cells (in 2% paraformalin overnight) are stained with the primary antibodies, anti-NFκB(p65) (SantaCruz Biotechnology, SantaCruz, Calif.) and anti-IRF3 (BD Biosciences, San Jose, Calif.), in permeabilization buffer (PBS, 2% FBS, 0.1% TritonX) followed by secondary antibodies, anti-Rabbit FITC (Jackson Labs, Bar Harbor, Me.), anti-mouse PE (BD Biosciences, San Jose, Calif.). Similarity scores of signaling protein localization with the nuclear stain DRAQ5 (Alexis Biochemicals (San Diego, Calif.) are used for ImageStream analysis of Nuclear Translocation as previously described {George, 2006 32669/id}. A minimum of 3000 cells are collected and analyzed for each condition tested.
Interferon […] Factor-3 (IRF-3) is a transcription factor activated downstream of the TRIF-dependent TLR4 signaling pathway (Yamamoto et al. 640-43). IRF-3 phosphorylation leads to IRF-3 dimerization, nuclear translocation, and induction of transcription of Type I interferon (IFNβ) and interferon-inducible genes (Honda, Takaoka, and Taniguchi 349-60; Tailor, Tamura, and Ozato 134-40). The ImageStream is capable of measuring nuclear translocation of both NFκB and IRF-3 by quantification of co-localization between the labeled transcription factors and the nucleus of cells stained with a nucleus-specific dye ([…]) (Beum et al. 90-99; George et al. 117-29; Arechiga et al. 7800-04).
In order to compare signaling initiated by CRX-527 and CRX-547, the induction of nuclear translocation of NFκB and IRF-3 by CRX-527 and CRX-547 treatment is compared in the human monocytic cell line, MonoMac6 (MM6) using ImageStream analysis.
To determine whether CRX-547 is able to antagonize NFκB nuclear translocation in cells treated with constant CRX-527, MM6 cells are stimulated for 20 minutes, 35 minutes and 2 hrs with increasing doses of CRX-547 (FIG. 12). When AGPs are added at the same time, CRX-547 antagonized NFκB nuclear translocation induced by CRX-527 at the highest doses. When CRX-547 is constant and spiked with CRX-527 into the assay, CRX-527 stimulation is able to overcome the maximal effect of NFκB nuclear translocation with CRX-547 alone.

Data set [1] is described as follows: Rabbit toxicology study by IM route. In kind it is in vivo. As to conditions: for hematology: granulocytosis: day 9 (2 days post-2°), resolves by day 21; for gross pathology: white discoloration of muscle along needle track and at site of injection: low dose (5 μg); for overall impression of toxicity: n=3 rabbits/group. On the procedure: Groups of three rabbits (NZW—Western Oregon Rabbit Company, Philomath, Oreg.) are vaccinated with 1 mL diluted AGP, or MPL control, IM on days 0, 7 and 14. Two doses of AGP are evaluated. All animals are monitored for body weight, temperature, clinical condition and draize score. Animals are sacrificed one week post final administration. Blood is collected pretreatment, two days after the 2nd vaccination and upon sacrifice for hematology and clinical chemistry. Histopathology of injection sites and major organs are conducted according to standard practices. All animals are used in accordance with guidelines established by the Public Health Service and the Institutional Animal Care and Use Committee at GlaxoSmithKline Biologicals, Hamilton, Mont.
Toxicity of CRX-527, 524, 547 and compound 1 is evaluated in rabbits receiving AGP only by the intramuscular (IM) route. Groups of three rabbits are vaccinated with 1 mL diluted AGP, or MPL control, IM on days 0, 7 and 14. Two doses of AGP are evaluated: high (25 μg) and low (5 μg). All animals are monitored for body weight, temperature, clinical condition and draize score. Animals are sacrificed one week post final administration. Blood is collected pretreatment, two days after the 2nd vaccination and upon sacrifice for hematology and clinical chemistry. Histopathology of injection sites and major organs are conducted.

The next data set has as its system RAW264.7 cells. The experiment in a line: Western blot of signaling proteins in RAW264.7 cells. In kind it is cell-based, mouse. The settings on record: 10 ng/ml, PMA pre-activated. The method, then: For Western blot and phospho-Western blot protein analysis, cells are lysed with Cell Lysis Buffer (Cell Signaling Technology, Danvers, Mass.) with Protease Inhibitor Cocktail (Sigma, St. Louis Mo.). Western Blot on PVDF membranes (Millipore) is performed using standard methods. Bands are detected with ECL Advance Western Blot kit (GE Healthcare, Piscataway, N.J.). Secondary Anti-Rabbit HRP antibody is obtainable from KPL, (Gaithersburg, Md.). Anti-βactin, anti-IRF-3, anti-phospho-IRF-3 (Ser396) and anti-IRAK1 antibodies are obtained from Cell Signaling Technology (Danvers, Mass.).
To determine whether the phosphorylation (activation) status of key protein signaling molecules in the TRIF versus MyD88 in RAW264.7 cells, cells are pre-activated with 10^−7M PMA) then stimulated with 10 ng/ml of the AGPs. Cellular lysates are prepared at 0, 15 m, 30 m, 45 m, 60 m, 120 m, 240 m, Similar to results in MM6 cells, IκBα degradation is faster after stimulation with CRX-527 compared to CRX-547 (FIG. 29). […] The increased reponsiveness of these cello could be due to the pre-activation with PMA, known to increase the maturation state of monocytic cells. CRX-547 induces expression of Phospho-IκBα and Phospho-IRF3. IRF3 is induced through TRIF mediated signaling. The amount of total IRF3 protein is also higher in the cells treated with CRX-547.

For data set [2], the system named is RAW264.7 (macrophage) cells. The experiment in a line: TNFα and IP-10 production in RAW264.7 cells. Format: cell-based, mouse. An excerpt:
To better compare and confirm the similarity of potency between the L and D isomers in murine cells, RAW264.7 (macrophage) cells are stimulated over a wider dose range with CRX-527, CRX-547, compounds 1a and 1b and the supernatants assayed for MyD88 (TNFα) and TRIF-dependent (IP-10) production.
Since MyD88-dependent signaling after TLR4 stimulation should be earlier than TRIF dependent signaling, and because both MyD88 and TRIF can induce downstream TNFα production due to activation of the NFκB pathway, an earlier timepoint is tested for cytokine production after stimulation with the L and D isomers.

For `CCCCCCCCCCCC(CC(=O)NC(COC1OC(CO)C(OP(=O)(O)O)C(OC(=O)CC(CCCCCCCCCCC)OC(=O)CCCCCCCCC)C1NC(=O)CC(CCCCCCCCCCC)OC(=O)CCCCCCCCC)C(=O)O)OC(=O)CCCCCCCCC.CCN(CC)CC` (stereo not shown) [CRX-527], the “earliest NFκB nuclear translocation post-stimulation” value in the data set with MonoMac6 (MM6) cells (MM6 cells) was at most 5 min. Besides, the NFκB nuclear translocation with MonoMac6 (MM6) cells (MM6 cells, by thirty minutes) is around 100%. In data set [1] (high dose), the “injection site histopathology (myositis)” value was “most consistent and greatest”; the “hematology: granulocytosis” value is “trend of granulocytosis”. In data set [1], the “gross pathology: white discoloration of muscle along needle track and at site of injection” value is given as “seen”; the “overall impression of toxicity” value is listed as “mildly toxic”. In addition, in data set [1] (low dose), the “hematology: granulocytosis” value is on record as “trend of granulocytosis”. Further, the IκBα degradation result with RAW264.7 cells (CRX-527 compared to CRX-547) is reported as “faster”. In data set [2] (four hours of stimulation), the “potency for IP-10 production” value is listed as “slightly more potent” and the “potency for TNFα production” value was “slightly more potent”. Besides, in data set [2] (wider dose range), the “potency for IP-10 production” value was “more potent” and the “potency for TNFα production” value was “more potent”.
`CCCCCCCCCCCC(CC(=O)NC(COC1OC(CO)C(OP(=O)(O)O)C(OC(=O)CC(CCCCCCCCCCC)OC(=O)CCCCCCCCC)C1NC(=O)CC(CCCCCCCCCCC)OC(=O)CCCCCCCCC)C(=O)O)OC(=O)CCCCCCCCC.CCN(CC)CC` (stereo not shown) [CRX-547]: in the data set on MonoMac6 (MM6) cells (MM6, AGPs added at the same time, highest doses of CRX-547), the “effect on NFκB nuclear translocation induced by CRX-527” value was “antagonized”. Also, the “NFκB nuclear translocation, threshold never exceeded” value with MonoMac6 (MM6) cells (MM6 cells, 5-120 minutes) is given as “around 50%”. In addition, the “injection site histopathology (myositis)” value in data set [1] (low dose) is recorded as “no muscle pathology”. Moreover, in data set [1], the “gross pathology: white discoloration of muscle along needle track and at site of injection” value was “not”; the “overall impression of toxicity” value is recorded as “minimally toxic”. Besides, in the data set with RAW264.7 cells (performed once), the IRF3 phosphorylation entry is “higher degree”, the IκBα phosphorylation entry is listed as “higher degree” and the “amount of total IRF3 protein” value is listed as “higher”. In data set [2] (wider dose range), the “potency for IP-10 production” value is reported as “less potent” and the “potency for TNFα production” value is given as “less potent”.

Values taken from patent US8629116B2, “Method for inducing a TRIF-bias” (priority 2008, dated 2014).
